Assay results published in patent US9708314B2, “Heterocyclic amide compound” (NISSAN CHEMICAL INDUSTRIES, LTD., priority 2013, dated 2017).

Columns and labels:
Type in all cases: in vivo
[1] = tested on: Echinochloa crus-galli var. crus-galli; assay: Test Example 3: herbicidal effect by application to foliage (Wagner pot, water depth 0.1-0.5 cm); details: Nineteenth Table; application to foliage; application herbicide amount 320 g/ha
Procedure, shortened: (§1)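 Plants are raised 14 days from seed in flooded-surface Wagner pots at 25–30 °C, sprayed on stems and leaves with diluted emulsion at a predetermined rate, and rated three weeks on using a 0–5 herbicidal-ratio scale (5 ≥90%).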

Leptochloa chinensis = assay: as above; details: Nineteenth Table; application to foliage; application herbicide amount 320 g/ha
Procedure, shortened: as §1

Abutilon theophrasti = assay: Test Example 4: herbicidal effect by application to foliage (diluvial soil, plastic box); details: application to foliage, 320 g/ha
Procedure, shortened: (§2)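 Seeds sown in sterilized diluvial soil, covered ~1.5 cm, grown 14 days in greenhouse at 25° C. to 30° C. Emulsion formulation diluted in water to set rate (g/ha) and sprayed onto stems and leaves. Effect scored visually 3 weeks later on 0–5 scale (5 = ≥90% herbicidal ratio, 0 = ≤5%).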

Alopecurus myosuroides = assay: as above; details: application to foliage, 320 g/ha
Procedure, shortened: as §2

Apera spica-venti. = assay: as above; details: application to foliage, 320 g/ha
Procedure, shortened: as §2

Avena fatua = assay: as above; details: application to foliage, 320 g/ha
Procedure, shortened: as §2

Chenopodium album = assay: as above; details: application to foliage, 320 g/ha
Procedure, shortened: as §2

Digitaria ciliaris = assay: as above; details: application to foliage, 320 g/ha
Procedure, shortened: as §2

[2] = tested on: Echinochloa crus-galli var. crus-galli; assay: as above; details: application to foliage, 320 g/ha
Procedure, shortened: as §2

Galium spurium = assay: as above; details: application to foliage, 320 g/ha
Procedure, shortened: as §2

Lolium multiflorum Lam. = assay: as above; details: application to foliage, 320 g/ha
Procedure, shortened: as §2

Setaria viridis = assay: as above; details: application to foliage, 320 g/ha
Procedure, shortened: as §2

[3] = tested on: Beta vulgaris ssp. vulgaris; assay: Test Example 4: effect on crop by application to foliage (diluvial soil, plastic box); details: application to foliage, 320 g/ha
Procedure, shortened: as §2

Brassica campestris L. = assay: as above; details: application to foliage, 320 g/ha
Procedure, shortened: as §2

Glycine max = assay: as above; details: application to foliage, 320 g/ha
Procedure, shortened: as §2

Triticum aestivum = assay: as above; details: application to foliage, 320 g/ha
Procedure, shortened: as §2

Zea mays = assay: as above; details: application to foliage, 320 g/ha
Procedure, shortened: as §2

[4] = tested on: directly sowed Oryza sativa; assay: as above; details: application to foliage, 320 g/ha
Procedure, shortened: as §2

SMILES	H (herbicidal effect grade) [1]	D (herbicidal effect grade) (Leptochloa chinensis)	herbicidal effect, M (Abutilon theophrasti) (Abutilon theophrasti)	herbicidal effect, J (Alopecurus myosuroides) (Alopecurus myosuroides)	herbicidal effect, L (Apera spica-venti.) (Apera spica-venti.)	herbicidal effect, I (Avena fatua) (Avena fatua)	herbicidal effect, O (Chenopodium album) (Chenopodium album)	herbicidal effect, F (Digitaria ciliaris) (Digitaria ciliaris)	herbicidal effect, H (Echinochloa crus-galli var. crus-galli) [2]	herbicidal effect, Q (Galium spurium) (Galium spurium)	herbicidal effect, K (Lolium multiflorum Lam.) (Lolium multiflorum Lam.)	herbicidal effect, G (Setaria viridis) (Setaria viridis)	effect on crop, f (Beta vulgaris ssp. vulgaris) [3]	effect on crop, g (Brassica campestris L.) (Brassica campestris L.)	effect on crop, c (Glycine max) (Glycine max)	effect on crop, e (Triticum aestivum) (Triticum aestivum)	effect on crop, b (Zea mays) (Zea mays)	effect on crop, d (directly sowed Oryza sativa) [4]
Cn1nnnc1NC(=O)c1ccc(C(F)(F)F)n2c(SCc3ccc(Cl)nc3)nnc12 [2-097]	2 (Herbicidal ratio of 20% or more and less than 40%)	3 (Herbicidal ratio of 40% or more and less than 70%)	3 (Herbicidal ratio of 40% or more and less than 70%)	1 (Herbicidal ratio of 5% or more and less than 20%)	2 (Herbicidal ratio of 20% or more and less than 40%)	2 (Herbicidal ratio of 20% or more and less than 40%)	5 (Herbicidal ratio of 90% or more (almost completely withered))	4 (Herbicidal ratio of 70% or more and less than 90%)	5 (Herbicidal ratio of 90% or more (almost completely withered))	3 (Herbicidal ratio of 40% or more and less than 70%)	1 (Herbicidal ratio of 5% or more and less than 20%)	3 (Herbicidal ratio of 40% or more and less than 70%)	4 (Herbicidal ratio of 70% or more and less than 90%)	1 (Herbicidal ratio of 5% or more and less than 20%)	0 (Herbicidal ratio of 5% or less (almost no effect))	0 (Herbicidal ratio of 5% or less (almost no effect))	0 (Herbicidal ratio of 5% or less (almost no effect))	3 (Herbicidal ratio of 40% or more and less than 70%)
CCSc1nnc2c(C(=O)Nc3nnnn3CCOC)ccc(C(F)(F)F)n12 [2-098]	5 (Herbicidal ratio of 90% or more (almost completely withered))	5 (Herbicidal ratio of 90% or more (almost completely withered))	4 (Herbicidal ratio of 70% or more and less than 90%)	2 (Herbicidal ratio of 20% or more and less than 40%)	4 (Herbicidal ratio of 70% or more and less than 90%)	4 (Herbicidal ratio of 70% or more and less than 90%)	5 (Herbicidal ratio of 90% or more (almost completely withered))	5 (Herbicidal ratio of 90% or more (almost completely withered))	5 (Herbicidal ratio of 90% or more (almost completely withered))	4 (Herbicidal ratio of 70% or more and less than 90%)	3 (Herbicidal ratio of 40% or more and less than 70%)	5 (Herbicidal ratio of 90% or more (almost completely withered))	5 (Herbicidal ratio of 90% or more (almost completely withered))	4 (Herbicidal ratio of 70% or more and less than 90%)	1 (Herbicidal ratio of 5% or more and less than 20%)	3 (Herbicidal ratio of 40% or more and less than 70%)	4 (Herbicidal ratio of 70% or more and less than 90%)	4 (Herbicidal ratio of 70% or more and less than 90%)
Cn1nnnc1NC(=O)c1ccc(C(F)(F)F)n2c(SC3CCCC3)nnc12 [2-096]	0 (Herbicidal ratio of 5% or less (almost no effect))	0 (Herbicidal ratio of 5% or less (almost no effect))	5 (Herbicidal ratio of 90% or more (almost completely withered))	0 (Herbicidal ratio of 5% or less (almost no effect))	0 (Herbicidal ratio of 5% or less (almost no effect))	1 (Herbicidal ratio of 5% or more and less than 20%)	5 (Herbicidal ratio of 90% or more (almost completely withered))	5 (Herbicidal ratio of 90% or more (almost completely withered))	5 (Herbicidal ratio of 90% or more (almost completely withered))	3 (Herbicidal ratio of 40% or more and less than 70%)	0 (Herbicidal ratio of 5% or less (almost no effect))	4 (Herbicidal ratio of 70% or more and less than 90%)	5 (Herbicidal ratio of 90% or more (almost completely withered))	0 (Herbicidal ratio of 5% or less (almost no effect))	0 (Herbicidal ratio of 5% or less (almost no effect))	0 (Herbicidal ratio of 5% or less (almost no effect))	0 (Herbicidal ratio of 5% or less (almost no effect))	3 (Herbicidal ratio of 40% or more and less than 70%)
